According to US8168651B2, “Protein kinase modulators” (Cylene Pharmaceuticals, Inc., priority 2008, dated 2012):
Like-named read-outs stand apart in the source and are kept apart here. Values belong to the molecule of their own block, whether it stands above or below them.

Assays:
[1] = biological target: recombinant human PIM1 (Homo sapiens (Human), UniProt P11309); test: PIM-1 kinase activity in cell-free in vitro assay; type: biochemical; details: for inhibition at 0.5 µM: read-out: PIM-1: % inh 500 nM
Sequence of recombinant human PIM1 (P11309 whole entry): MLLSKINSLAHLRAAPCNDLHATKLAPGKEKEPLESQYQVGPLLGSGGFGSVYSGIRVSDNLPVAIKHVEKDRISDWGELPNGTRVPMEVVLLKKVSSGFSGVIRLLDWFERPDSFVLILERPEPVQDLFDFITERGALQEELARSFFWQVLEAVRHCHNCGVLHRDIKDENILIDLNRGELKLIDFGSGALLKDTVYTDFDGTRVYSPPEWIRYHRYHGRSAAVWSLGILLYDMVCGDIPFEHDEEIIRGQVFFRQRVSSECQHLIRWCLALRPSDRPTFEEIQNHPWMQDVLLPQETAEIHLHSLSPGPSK

[2] = tested on: HCT-116 human colorectal carcinoma cells; test: Cell-proliferation assay using Alamar Blue dye; type: cell-based;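 further: cells exposed to compound for about 4 days, then Alamar Blue added and dye fluorescence read after about 4 h, compared with medium-only control wells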
[3] = Homo sapiens, HCT-116, read-out: HCT-116 (uM), cell proliferation modulatory activity, HCT-116, second column
[4] = Homo sapiens, HCT-116, HCT-116, second column, read-out: HCT-116 (uM), cell proliferation modulatory activity
[5] = Homo sapiens, HCT-116, read-out: HCT-116 (uM), cell proliferation modulatory activity, HCT-116, first column
[6] = 500 nM compound, cell-free assay
[7] = Homo sapiens, HCT-116, HCT-116, second HCT-116 column (c8), read-out: HCT-116 (uM), cell proliferation modulatory activity
[8] = Homo sapiens, HCT-116, HCT-116, first column, read-out: HCT-116 (uM), cell proliferation modulatory activity

SMILES: CN(C)CCNc1nc2cc(C#N)ccc2c2cnccc12
- inhibition at 0.5 µM ([1]; 500 nM compound, cell-free): -11.5%
- IC50 [2, 4]: 1.6 µM

SMILES: c1ccc(Nc2nc3cc(-c4nnn[nH]4)ccc3c3cnccc23)cc1
- inhibition at 0.5 µM ([1]; 500 nM compound, cell-free): 33.1%

SMILES: O=C(O)c1ccc2c(c1)nc(Nc1ccccc1O)c1ccsc12
- inhibition at 0.5 µM ([1]; 500 nM compound, cell-free): -3.12%
- IC50 [2, 5]: 10 µM

SMILES: FC(F)(F)Oc1ccc(Nc2nc3cc(-c4nnn[nH]4)ccc3c3sccc23)cc1
- inhibition at 0.5 µM ([1]; 500 nM compound, cell-free): 32.5%
- IC50 [2, 4]: > 10 µM

SMILES: COc1cccc(Nc2nc3cc(-c4nnn[nH]4)ccc3c3sccc23)c1
- inhibition at 0.5 µM ([1]; 500 nM compound, cell-free): 55.7%
- IC50 ([1]; cell-free): 0.352 µM
- IC50 [2, 5]: 10 µM

SMILES: O=C(O)c1ccc2c(c1)nc(N1CCOCC1)c1ccsc12 [drawing 1401]
- inhibition at 0.5 µM ([1]; 500 nM compound, cell-free): 35.7%
- IC50 [2, 8]: 10 µM

SMILES: CCOC(=O)c1cccc(Nc2nc3cc(-c4nnn[nH]4)ccc3c3sccc23)c1
- inhibition at 0.5 µM ([1]; 500 nM compound, cell-free): 34%
- IC50 [2, 4]: > 10 µM

SMILES: O=C(O)c1ccc2c(c1)nc(NCCc1ccccc1)c1ccsc12
- inhibition at 0.5 µM ([1]; 500 nM compound, cell-free): 19.9%
- IC50 [2, 5]: 10 µM

SMILES: COC(=O)CNC(=O)c1cccc(Nc2nc3cc(-c4nnn[nH]4)ccc3c3sccc23)c1
- inhibition at 0.5 µM ([1]; 500 nM compound, cell-free): 48%
- IC50 [2, 3]: > 10 µM

SMILES: CCCNC(=O)c1cccc(Nc2nc3cc(C(=O)O)ccc3c3sccc23)c1
- inhibition at 0.5 µM ([1]; 500 nM compound, cell-free): 13.3%
- IC50 [2, 3]: > 10 µM

SMILES: c1ccc(Nc2nc3cc(-c4nnn[nH]4)ccc3c3ccccc23)cc1
- inhibition at 0.5 µM ([1]; 500 nM compound, cell-free): 15.8%
- IC50 [2, 8]: 10 µM

SMILES: NS(=O)(=O)c1cccc(Nc2nc3cc(C(=O)O)ccc3c3cnccc23)c1
- inhibition at 0.5 µM [1, 6]: 83.4%
- IC50 ([1]; cell-free assay): 0.397 µM
- IC50 [2, 7]: > 10 µM

SMILES: CCN(CC)CCNc1ncc2c(n1)c(Nc1ccccc1)nc1cc(C(=O)O)ccc12
- inhibition at 0.5 µM [1, 6]: 4.27%

SMILES: CN(C)CCNc1nc2cc(C#N)ccc2c2sccc12 [drawing 1429]
- inhibition at 0.5 µM ([1]; 500 nM compound, cell-free): -3.84%
- IC50 [2, 8]: 0.4 µM

SMILES: O=C(c1cccc(Nc2nc3cc(-c4nnn[nH]4)ccc3c3sccc23)c1)N1CCOCC1
- inhibition at 0.5 µM ([1]; 500 nM compound, cell-free): 21%
- IC50 [2, 3]: > 10 µM

SMILES: O=C(O)c1ccc2c(c1)nc(NCc1ccncc1)c1ccsc12
- inhibition at 0.5 µM ([1]; 500 nM compound, cell-free): 71.3%
- IC50 [2, 5]: 10 µM

SMILES: O=C(O)c1ccc2c(c1)nc(Nc1cccc(Cl)c1F)c1ccsc12
- inhibition at 0.5 µM ([1]; 500 nM compound, cell-free): 27.6%
- IC50 [2, 3]: > 10 µM

SMILES: O=C(O)c1ccc2c(c1)nc(Nc1cccc(Oc3ccccc3)c1)c1ccsc12
- inhibition at 0.5 µM ([1]; 500 nM compound, cell-free): -10.2%
- IC50 [2, 3]: > 10 µM

SMILES: COc1ccc(OC)c(Nc2nc3cc(-c4nnn[nH]4)ccc3c3sccc23)c1
- inhibition at 0.5 µM ([1]; 500 nM compound, cell-free): 21.8%

SMILES: O=C(O)c1ccc2c(c1)nc(NCCCO)c1ccsc12
- inhibition at 0.5 µM ([1]; 500 nM compound, cell-free): -0.688%
- IC50 [2, 5]: 10 µM

SMILES: CN(C)CCNc1nc2cc(-c3nnn[nH]3)ccc2c2cnccc12
- inhibition at 0.5 µM ([1]; 500 nM compound, cell-free): 38.1%

SMILES: Cc1cnc(CNC(=O)c2ccc3c(c2)nc(N2CCN(C)CC2)c2ccncc23)cn1
- inhibition at 0.5 µM [1, 6]: -23.1%
- IC50 [2, 7]: > 10 µM

Other lines, results leading:

- inhibition at 0.5 µM ([1]; 500 nM compound, cell-free): 37.6%
- IC50 [2, 3]: > 10 µM
SMILES: Cc1cc(CNC(=O)c2cccc(Nc3nc4cc(-c5nnn[nH]5)ccc4c4sccc34)c2)no1 [drawing 1507]

- inhibition at 0.5 µM ([1]; 500 nM compound, cell-free): 37.5%
- IC50 [2, 3]: > 10 µM
SMILES: O=C(O)c1ccc2c(c1)nc(Nc1cccc(C(=O)NC3CC3)c1)c1ccsc12

- inhibition at 0.5 µM ([1]; 500 nM compound, cell-free): 37.4%
- IC50 [2, 5]: 10 µM
SMILES: O=C(O)c1ccc2c(c1)nc(NC1CC1)c1ccsc12

- inhibition at 0.5 µM ([1]; 500 nM compound, cell-free): -36.6%
- IC50 [2, 5]: 10 µM
SMILES: O=C(O)c1ccc2c(c1)nc(NCc1ccccn1)c1ccsc12

- IC50 ([1]; Table 45): > 1.1 µM
SMILES: COC(=O)c1cccc2c1nc(Nc1ccccc1)c1ccncc12 [drawing 2272]

- inhibition at 0.5 µM ([1]; 500 nM compound, cell-free): 63%
- IC50 ([1]; cell-free): > 1.1 µM
- IC50 [2, 4]: > 10 µM
SMILES: COc1ccc(Nc2nc3cc(-c4nnn[nH]4)ccc3c3sccc23)cc1

- inhibition at 0.5 µM ([1]; 500 nM compound, cell-free): -15.5%
- IC50 [2, 5]: 10 µM
SMILES: Cc1ccccc1Nc1nc2cc(C(=O)O)ccc2c2sccc12

- PIM-1: % inh 500 nM ([1]; 500 nM compound, cell-free): 55.402%
- IC50 ([1]; cell-free): 0.581 µM
- IC50 ([2]; read-out: HCT-116 (uM), cell proliferation modulatory activity, HCT-116): > 10 µM
SMILES: Cc1cc(CNC(=O)c2cccc(Nc3nc4cc(-c5nnn[nH]5)ccc4c4sccc34)c2)no1 [drawing 1508]

- inhibition at 0.5 µM ([1]; 500 nM compound, cell-free): 18%
- IC50 [2, 4]: > 10 µM
SMILES: c1cc2c(Nc3ccc4c(c3)OCO4)nc3cc(-c4nnn[nH]4)ccc3c2s1

- inhibition at 0.5 µM [1, 6]: -16.5%
- IC50 [2, 7]: 3.86 µM
SMILES: CN(C)C1CCN(c2nc3cc(C#N)ccc3c3sccc23)C1 (stereo not shown)

- inhibition at 0.5 µM [1, 6]: -17.6%
- IC50 [2, 7]: 9.38 µM
SMILES: N#Cc1ccc2c(c1)nc(N1CCN(CCO)CC1)c1ccsc12

- inhibition at 0.5 µM ([1]; 500 nM compound, cell-free): 59.1%
- IC50 ([1]; cell-free): 0.53 µM
- IC50 [2, 3]: > 10 µM
SMILES: Cc1cccc(Nc2nc3cc(C(=O)O)ccc3c3sccc23)c1

- inhibition at 0.5 µM [1, 6]: 58.3%
- IC50 ([1]; cell-free assay): 0.914 µM
- IC50 [2, 7]: > 10 µM
SMILES: Cn1nc(-c2ccccc2)cc1Nc1nc2cc(C(=O)O)ccc2c2cnccc12

- inhibition at 0.5 µM ([1]; 500 nM compound, cell-free): 44.4%
- IC50 ([1]; cell-free): 0.675 µM
- IC50 [2, 3]: > 10 µM
SMILES: O=C(O)c1ccc2c(c1)nc(NCc1ccccc1)c1ccncc12 [drawing 1557]

- inhibition at 0.5 µM ([1]; 500 nM compound, cell-free): -22%
- IC50 [2, 8]: 10 µM
SMILES: c1ccc(Nc2nc3ccccc3c3sccc23)cc1 [drawing 1399]

- inhibition at 0.5 µM ([1]; 500 nM compound, cell-free): 35.9%
- IC50 [2, 4]: > 10 µM
SMILES: CC(C)c1cccc(Nc2nc3cc(-c4nnn[nH]4)ccc3c3sccc23)c1

- inhibition at 0.5 µM ([1]; 500 nM compound, cell-free): 25.6%
- IC50 [2, 5]: 10 µM
SMILES: COc1ccc(Nc2nc3cc(-c4nnn[nH]4)ccc3c3sccc23)cc1Cl

- inhibition at 0.5 µM [1, 6]: 73.6%
- IC50 ([1]; cell-free assay): 0.369 µM
- IC50 [2, 7]: > 10 µM
SMILES: CC(=O)Nc1cccc(Nc2nc3cc(C(=O)O)ccc3c3cnccc23)c1

- inhibition at 0.5 µM [1, 6]: 11%
- IC50 [2, 7]: > 10 µM
SMILES: CN1CCN(c2nc3cc(C(=O)NCC4CCCO4)ccc3c3sccc23)CC1 (stereo not shown)
